According to patent US7642251B2, “Compounds for the treatment of hepatitis C” (Bristol-Myers Squibb Company, priority 2007, dated 2010):
Where two headings read alike, the source gives them in different places.

Key:
HCV replicon cells = assay: HCV replicon FRET assay; type: cell-based; settings: Hepatitis C virus
Excerpt: FRET Assay Preparation. To perform the HCV FRET screening assay, 96-well cell culture plates were used. The FRET peptide (Anaspec, Inc.) (Taliani et al., Anal. Biochem. 1996, 240, 60-67) contains a fluorescence donor, EDANS, near one end of the peptide and an acceptor, DABCYL, near the other end. The fluorescence of the peptide is quenched by […] resonance energy transfer (RET) between the donor and the acceptor, but as the NS3 protease cleaves the peptide the products are released from RET quenching and the fluorescence of the donor becomes apparent. The assay reagent was made as follows: 5× cell Luciferase cell culture lysis reagent from Promega (#E153A) diluted to 1× with dH2O, NaCl added to 150 mM final, the FRET peptide diluted to 20 μM final from a 2 mM stock.
To prepare plates, HCV replicon cells, with or without a Renilla luciferase reporter gene, were trypsinized and placed into each well of a 96-well plate with titrated test compounds added in columns 3 through 12; columns 1 and 2 contained a control compound (HCV protease inhibitor), and the bottom row contained cells without compound. The plates were then placed in a CO2 incubator at 37° C.
Assays. Subsequent to addition of the test compounds described above (FRET Assay Preparation), at various times the plate was removed and Alamar blue solution (Trek Diagnostics, #00-100) was added per well as a measure of cellular toxicity. After reading in a Cytoflour 4000 instrument (PE Biosystems), plates were rinsed with PBS and then used for FRET assay by the addition of 30 ul of the FRET peptide assay reagent described above (FRET Assay Preparation) per well. The plate was then placed into the Cytoflour 4000 instrument which had been set to 340 excite/490 emission, automatic mode for 20 cycles and the plate read in a kinetic mode. Typically, the signal to noise using an endpoint analysis after the reads was at least three-fold. Alternatively, after Alamar blue reading, plates were rinsed with PBS, 50 ul of DMEM (high glucose) without phenol red was added and plates were then used for luciferase assay using the Promega Dual-Glo Luciferase Assay System.
Compound analysis was determined by quantification of the relative HCV replicon inhibition and the relative cytotoxicity values. To calculate cytoxicity values, the average Alamar Blue fluorescence signals from the control wells were set as 100% non-toxic. The individual signals in each of the compound test wells were then divided by the average control signal and multiplied by 100% to determine […]. To calculate the HCV replicon inhibition values, an average background value was obtained from the two wells containing the highest amount of HCV protease inhibitor at the end of the assay period. These numbers were similar to those obtained from naïve Huh-7 cells.
The background numbers were then subtracted from the average signal obtained from the control wells and this number was used as 100% activity. The individual signals in each of the compound test wells were then divided by the averaged control values after background subtraction and multiplied by 100% to determine percent activity. EC50 values for a protease inhibitor titration were calculated as the concentration which caused a 50% reduction in FRET or luciferase activity. The two numbers generated for the compound plate, percent cytoxicity and percent activity were used to determine compounds of interest for further analysis.

HCV NS5B = biological target: T1, HCV NS5B (Hepatitis C virus genotype 1b, UniProt Q9WMX2); assay: Modified HCV NS5B RdRp enzyme assay (preincubation protocol); type: biochemical
T1 construct: The cDNA encoding the NS5B protein of HCV, genotype 1b; made in house; host or cells: E. coli BL21(DE3)
Method: HCV NS5B RdRp cloning, expression, and purification. The cDNA encoding the NS5B protein of HCV, genotype 1b, was cloned into the pET21a expression vector. The protein was expressed with an 18 amino acid C-terminal truncation to enhance the solubility. The E. coli competent cell line BL21(DE3) was used for expression of the protein. Cultures were grown at 37° C. for ˜4 hours until the cultures reached an optical density of 2.0 at 600 nm. The cultures were cooled to 20° C. and induced with 1 mM IPTG. Fresh ampicillin was added to a final concentration of 50 μg/ml and the cells were grown overnight at 20° C.
Cell pellets (3 L) were lysed for purification to yield 15-24 mgs of purified NS5B. The lysis buffer consisted of 20 mM Tris-HCl, pH 7.4, 500 mM NaCl, 0.5% triton X-100, 1 mM DTT, 1 mM EDTA, 20% glycerol, 0.5 mg/ml lysozyme, 10 mM MgCl2, 15 ug/ml deoxyribonuclease I, and Complete™ protease inhibitor tablets (Roche). After addition of the lysis buffer, frozen cell pellets were resuspended using a tissue homogenizer. To reduce the viscosity of the sample, aliquots of the lysate were sonicated on ice using a microtip attached to a Branson sonicator. The sonicated lysate was centrifuged at 100,000×g for 1 hr at 4° C. and filtered through a 0.2 μm filter unit (Corning).
The protein was purified using three sequential chromatography steps: Heparin sepharose CL-6B, polyU sepharose 4B, and Hitrap SP sepharose (Pharmacia). The chromatography buffers were identical to the lysis buffer but contained no lysozyme, deoxyribonuclease I, MgCl2 or protease inhibitor and the NaCl concentration of the buffer was adjusted according to the requirements for charging the protein onto the column. Each column was eluted with a NaCl gradient which varied in length from 5-50 column volumes depending on the column type. After the final chromatography step, the resulting purity of the enzyme is >90% based on SDS-PAGE analysis. The enzyme was aliquoted and stored at −80° C.
Standard HCV NS5B RdRp enzyme assay. HCV RdRp genotype 1b assays were run in a final volume of 60 μl in 96 well plates (Costar 3912). The assay buffer is composed of 20 mM Hepes, pH 7.5, 2.5 mM KCl, 2.5 mM MgCl2, 1 mM DTT, 1.6 U RNAse inhibitor (Promega N2515), 0.1 mg/ml BSA (Promega R3961), and 2% glycerol. All compounds were serially diluted (3-fold) in DMSO and diluted further in water such that the final concentration of DMSO in the assay was 2%. HCV RdRp genotype 1b enzyme was used at a final concentration of 28 nM. A polyA template was used at 6 nM, and a biotinylated oligo-dT12 primer was used at 180 nM final concentration. Template was obtained commercially (Amersham 27-4110). Biotinylated primer was prepared by Sigma Genosys. 3H-UTP was used at 0.6 μCi (0.29 μM total UTP). Reactions were initiated by the addition of enzyme, incubated at 30° C. for 60 min, and stopped by adding 25 μl of 50 mM EDTA containing SPA beads (4 μg/μl, Amersham RPNQ 0007). Plates were read on a Packard Top Count NXT after >1 hr incubation at room temperature.
Modified HCV NS5B RdRp enzyme assay. A modified enzyme assay was performed essentially as described for the standard enzyme assay except for the following: The biotinylated oligo dT12 primer was precaptured on streptavidin-coated SPA beads by mixing primer and beads in assay buffer and incubating at room temperature for one hour. Unbound primer was removed after centrifugation. The primer-bound beads were resuspended in 20 mM Hepes buffer, pH 7.5 and used in the assay at final concentrations of 20 nM primer and 0.67 μg/μl beads. Order of addition in the assay: enzyme (14 nM) was added to diluted compound followed by the addition of a mixture of template (0.2 nM), 3H-UTP (0.6 μCi, 0.29 μM), and primer-bound beads, to initiate the reaction; concentrations given are final. Reactions were allowed to proceed for 4 hours at 30° C.
IC50 values for compounds were determined using seven different [I]. […]

[1] = preincubation protocol, read-out: IC50

T1 sequence (Q9WMX2 2420-2992): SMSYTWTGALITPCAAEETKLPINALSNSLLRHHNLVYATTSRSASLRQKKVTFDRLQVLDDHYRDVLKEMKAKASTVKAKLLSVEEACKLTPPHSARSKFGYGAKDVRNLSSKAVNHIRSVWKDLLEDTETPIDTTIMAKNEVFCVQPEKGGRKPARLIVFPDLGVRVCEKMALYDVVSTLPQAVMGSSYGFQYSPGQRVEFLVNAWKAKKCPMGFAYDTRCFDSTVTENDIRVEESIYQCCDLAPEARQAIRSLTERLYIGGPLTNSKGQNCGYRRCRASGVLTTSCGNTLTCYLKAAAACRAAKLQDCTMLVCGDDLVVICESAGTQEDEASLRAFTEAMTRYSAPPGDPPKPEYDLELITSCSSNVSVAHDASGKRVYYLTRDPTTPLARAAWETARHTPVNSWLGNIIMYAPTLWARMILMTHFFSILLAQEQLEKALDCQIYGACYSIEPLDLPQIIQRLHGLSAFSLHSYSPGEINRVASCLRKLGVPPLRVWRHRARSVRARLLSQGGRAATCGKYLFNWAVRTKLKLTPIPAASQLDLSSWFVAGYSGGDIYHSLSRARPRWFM

Compound	EC50 (HCV replicon cells; FRET assay, read-out: EC50)	IC50 (HCV NS5B; [1])	EC50 (HCV replicon cells)	IC50 (HCV NS5B)
COc1ccc2c(c1)C=C(c1ncccc1N(C)C)Cn1c-2c(C2CCCCC2)c2ccc(C(=O)O)cc21	4.58 to 500 nM	4.58 to 500 nM	–	–
COc1ccc2c(c1)C=C(c1cc(C(=O)N3CCOCC3)ccn1)Cn1c-2c(C2CCCCC2)c2ccc(C(=O)O)cc21	> 500 nM	> 500 nM	–	–
COc1ccc2c(c1)C=C(c1ncccc1S(=O)(=O)N1CCOCC1)Cn1c-2c(C2CCCCC2)c2ccc(C(=O)O)cc21	4.58 to 500 nM	4.58 to 500 nM	–	–
COc1ccc2c(c1)C=C(c1ncccc1S(=O)(=O)N1C3CCC1CN(C)C3)Cn1c-2c(C2CCCCC2)c2ccc(C(=O)O)cc21	–	–	4.58 to 500 nM	> 500 nM
COc1ccc2c(c1)C=C(c1ncccc1N1CC(C)(C)C1=O)Cn1c-2c(C2CCCCC2)c2ccc(C(=O)O)cc21	4.58 to 500 nM	4.58 to 500 nM	–	–
COc1ccc2c(c1)C=C(c1ncccc1C(=O)N1CCN(C)CC1)Cn1c-2c(C2CCCCC2)c2ccc(C(=O)O)cc21	4.58 to 500 nM	4.58 to 500 nM	–	–
COc1ccc2c(c1)C=C(c1ncccc1C(=O)N(C)C)Cn1c-2c(C2CCCCC2)c2ccc(C(=O)O)cc21	4.58 to 500 nM	4.58 to 500 nM	–	–
COc1ccc2c(c1)C=C(c1ncccc1C(=O)N1CCCC1)Cn1c-2c(C2CCCCC2)c2ccc(C(=O)O)cc21	4.58 to 500 nM	4.58 to 500 nM	–	–
COc1ccc2c(c1)C=C(c1ncccc1C(=O)N1C3CCC1CN(C)C3)Cn1c-2c(C2CCCCC2)c2ccc(C(=O)O)cc21	–	–	4.58 to 500 nM	4.58 to 500 nM
COc1ccc2c(c1)C=C(c1ncccc1C(=O)N1CCC(O)CC1)Cn1c-2c(C2CCCCC2)c2ccc(C(=O)O)cc21	4.58 to 500 nM	4.58 to 500 nM	–	–
COc1ccc2c(c1)C=C(c1ncccc1C(=O)N1CCCCC1)Cn1c-2c(C2CCCCC2)c2ccc(C(=O)O)cc21	4.58 to 500 nM	4.58 to 500 nM	–	–
COc1ccc2c(c1)C=C(c1ncccc1C(=O)N1CCOCC1)Cn1c-2c(C2CCCCC2)c2ccc(C(=O)NS(=O)(=O)N(C)C)cc21	4.58 to 500 nM	4.58 to 500 nM	–	–
COc1ccc2c(c1)C=C(c1cccc(N3CCOCC3)n1)Cn1c-2c(C2CCCCC2)c2ccc(C(=O)NS(=O)(=O)N(C)C)cc21	4.58 to 500 nM	4.58 to 500 nM	–	–
COc1ccc2c(c1)C=C(c1ncccc1S(=O)(=O)N1C3CCC1CN(C)C3)Cn1c-2c(C2CCCCC2)c2ccc(C(=O)NS(=O)(=O)N(C)C)cc21	–	–	4.58 to 500 nM	4.58 to 500 nM
COc1ccc2c(c1)C=C(c1ncccc1C(=O)N1C3CCC1CN(C)C3)Cn1c-2c(C2CCCCC2)c2ccc(C(=O)NS(=O)(=O)N(C)C)cc21	–	–	4.58 to 500 nM	4.58 to 500 nM
